Results reported in US7211572B2 (Japan Tobacco Inc., priority 2003, dated 2007).
Where a name gives a salt, the structure may show the parent alone.

These compounds were tested against T1, HIV integrase (Human immunodeficiency virus type 1 group M subtype B, UniProt P12497, F1332H) (assay: Determination of enzyme (HIV integrase) inhibitory activity). Conditions: recombinant HIV integrase (F185H), strand transfer ELISA, absorbance at 450 nm.
T1 construct: HIV integrase full length gene; made in house; host or cells: Escherichia coli BL21(DE3), plasmid pET21a-INH
Format: biochemical
Summary of the method: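 Full-length integrase with F185H, expressed in E. coli and purified, was reacted for 60 min at 37 °C with compound and biotinylated donor DNA bound to streptavidin plates. Target DNA was added for 10 min, then anti-digoxigenin-peroxidase detection at A450; IC50 from % inhibition versus enzyme-free blank.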

Compound	IC50
CC(C)CNc1cn2ccn(Cc3cccc(Cl)c3)c(=O)c2c(O)c1=O [Example 283, 2-(3-chlorobenzyl)-9-hydroxy-7-isobutylamino-2H-pyrido[1,2-a]pyrazine-1,8-dione hydrochloride]	10 to 100 nM
CC(C)C(C(=O)Nc1cn2ccn(Cc3cccc(Cl)c3)c(=O)c2c(O)c1=O)C(C)C [Example 284, N-[2-(3-chlorobenzyl)-9-hydroxy-1,8-dioxo-1,8-dihydro-2H-pyrido[1,2-a]pyrazin-7-yl] -2-isopropyl-3-methylbutyramide]	10 to 100 nM
CCNc1cn2ccn(Cc3cccc(Cl)c3)c(=O)c2c(O)c1=O [Example 285, 2-(3-chlorobenzyl)-7-ethylamino-9-hydroxy-2H-pyrido[1,2-a]pyrazine-1,8-dione hydrochloride]	10 to 100 nM
O=C(Nc1cn2ccn(Cc3cccc(Cl)c3)c(=O)c2c(O)c1=O)c1cccnc1 [Example 286, N-[2-(3-chlorobenzyl)-9-hydroxy-1,8-dioxo-1,8-dihydro-2H-pyrido[1,2-a]pyrazin-7-yl]nicotinamide trifluoroacetate]	< 10 nM
O=C(Nc1cn2ccn(Cc3cccc(Cl)c3)c(=O)c2c(O)c1=O)c1ccncc1 [Example 287, N-[2-(3-chlorobenzyl)-9-hydroxy-1,8-dioxo-1,8-dihydro-2H-pyrido[1,2-a]pyrazin-7-yl]isonicotinamide trifluoroacetate]	< 10 nM
O=C(Nc1cn2ccn(Cc3cccc(Cl)c3)c(=O)c2c(O)c1=O)c1ccco1 [Example 288, N-[2-(3-chlorobenzyl)-9-hydroxy-1,8-dioxo-1,8-dihydro-2H-pyrido[1,2-a]pyrazin-7-yl]furan-2-carboxamide]	< 10 nM
O=C(Nc1cn2ccn(Cc3cccc(Cl)c3)c(=O)c2c(O)c1=O)c1cccs1 [Example 289, N-[2-(3-chlorobenzyl)-9-hydroxy-1,8-dioxo-1,8-dihydro-2H-pyrido[1,2-a]pyrazin-7-yl]thiophene-2-carboxamide]	< 10 nM
O=C1c2c(O)c(=O)c(-c3cccnn3)cn2CCN1Cc1cccc(Cl)c1 [Example 290, 2-(3-chlorobenzyl)-9-hydroxy-7-(pyridazin-3-yl)-3,4-dihydro-2H-pyrido[1,2-a]pyrazine-1,8-dione hydrochloride]	10 to 100 nM
O=C1c2c(O)c(=O)c(-c3nccs3)cn2CCN1Cc1ccc(F)c(F)c1 [Example 291, 2-(3,4-difluorobenzyl)-9-hydroxy-7-(thiazol-2-yl)-3,4-dihydro-2H-pyrido[1,2-a]pyrazine-1,8-dione]	10 to 100 nM
O=C1c2c(O)c(=O)c(-c3nccs3)cn2CCN1Cc1cccc(Cl)c1F [Example 292, 2-(3-chloro-2-fluorobenzyl)-9-hydroxy-7-(thiazol-2-yl)-3,4-dihydro-2H-pyrido[1,2-a]pyrazine-1,8-dione]	< 10 nM
O=C1c2c(O)c(=O)c(-c3nccs3)cn2CCN1Cc1ccc(Cl)cc1 [Example 293, 2-(4-chlorobenzyl)-9-hydroxy-7-(thiazol-2-yl)-3,4-dihydro-2H-pyrido[1,2-a]pyrazine-1,8-dione]	10 to 100 nM
O=C1c2c(O)c(=O)c(-c3nccs3)cn2CCN1Cc1ccc(Cl)c(F)c1 [Example 294, 2-(4-chloro-3-fluorobenzyl)-9-hydroxy-7-(thiazol-2-yl)-3,4-dihydro-2H-pyrido[1,2-a]pyrazine-1,8-dione]	< 10 nM
COc1cc(Cl)ccc1CN1CCn2cc(-c3nccs3)c(=O)c(O)c2C1=O [Example 295, 2-(4-chloro-2-methoxybenzyl)-9-hydroxy-7-(thiazol-2-yl)-3,4-dihydro-2H-pyrido[1,2-a]pyrazine-1,8-dione]	10 to 100 nM
Cn1cccc1C(=O)Nc1cn2ccn(Cc3cccc(Cl)c3)c(=O)c2c(O)c1=O [Example 296, N-[2-(3-chlorobenzyl)-9-hydroxy-1,8-dioxo-1,8-dihydro-2H-pyrido[1,2-a]pyrazin-7-yl]-1-methyl-1H-pyrrole-2-carboxamide]	< 10 nM
O=C1c2c(O)c(=O)c(-c3nccs3)cn2CCN1CCCc1ccc(Cl)cc1 [Example 297, 2-[3-(4-chlorophenyl)propyl]-9-hydroxy-7-(thiazol-2-yl)-3,4-dihydro-2H-pyrido[1,2-a]pyrazine-1,8-dione hydrochloride]	10 to 100 nM
O=C1c2c(O)c(=O)c(-c3nccs3)cn2CCN1CCCc1ccccc1Cl [Example 298, 2-[3-(2-chlorophenyl)propyl]-9-hydroxy-7-(thiazol-2-yl)-3,4-dihydro-2H-pyrido[1,2-a]pyrazine-1,8-dione hydrochloride]	< 10 nM
O=C1c2c(O)c(=O)c(-c3nccs3)cn2CCN1CCCc1cccc(Cl)c1 [Example 299, 2-[3-(3-chlorophenyl)propyl]-9-hydroxy-7-(thiazol-2-yl)-3,4-dihydro-2H-pyrido[1,2-a]pyrazine-1,8-dione hydrochloride]	10 to 100 nM
Cc1nsc(-c2cn3c(c(O)c2=O)C(=O)N(Cc2cccc(Cl)c2)CC3)n1 [Example 300, 2-(3-chlorobenzyl)-9-hydroxy-7-(3-methyl-1,2,4-thiadiazol-5-yl)-3,4-dihydro-2H-pyrido[1,2-a]pyrazine-1,8-dione hydrochloride]	10 to 100 nM

Compound	IC50
CNC(=O)c1cc(F)ccc1CN1CCn2cc(-c3nccs3)c(=O)c(O)c2C1=O [Example 301, 5-fluoro-2-[9-hydroxy-1,8-dioxo-7-(thiazol-2-yl)-1,3,4,8-tetrahydro-pyrido[1,2-a]pyrazin-2-ylmethyl]-N-methylbenzamide]	100 to 1000 nM
CC(=O)N(CC(C)C)c1cn2ccn(Cc3cccc(Cl)c3)c(=O)c2c(O)c1=O [Example 302, N-[2-(3-chlorobenzyl)-9-hydroxy-1,8-dioxo-1,8-dihydro-2H-pyrido[1,2-a]pyrazin-7-yl]-N-isobutylacetamide]	10 to 100 nM
CC(=O)Nc1cn2ccn(Cc3ccc(F)cc3)c(=O)c2c(O)c1=O [Example 303, N-[2-(4-fluorobenzyl)-9-hydroxy-1,8-dioxo-1,8-dihydro-2H-pyrido[1,2-a]pyrazin-7-yl]acetamide]	10 to 100 nM
O=C(Nc1cn2ccn(Cc3ccc(F)cc3)c(=O)c2c(O)c1=O)c1ccccc1 [Example 304, N-[2-(4-fluorobenzyl)-9-hydroxy-1,8-dioxo-1,8-dihydro-2H-pyrido[1,2-a]pyrazin-7-yl]benzamide]	< 10 nM
CS(=O)(=O)Nc1cn2ccn(Cc3ccc(F)cc3)c(=O)c2c(O)c1=O [Example 305, N-[2-(4-fluorobenzyl)-9-hydroxy-1,8-dioxo-1,8-dihydro-2H-pyrido[1,2-a]pyrazin-7-yl]methanesulfonamide]	< 10 nM
O=c1c(-c2ccccn2)cn2ccn(Cc3ccc(F)cc3)c(=O)c2c1O [Example 306, 2-(4-fluorobenzyl)-9-hydroxy-7-(pyridin-2-yl)-2H-pyrido[1,2-a]pyrazine-1,8-dione trifluoroacetate]	10 to 100 nM
O=C1c2c(O)c(=O)c(-c3nccs3)cn2CCN1Cc1ccccc1F [Example 307, 2-(2-fluorobenzyl)-9-hydroxy-7-(thiazol-2-yl)-3,4-dihydro-2H-pyrido[1,2-a]pyrazine-1,8-dione]	100 to 1000 nM
O=C1c2c(O)c(=O)c(-c3nccs3)cn2CCN1Cc1cccc(F)c1 [Example 308, 2-(3-fluorobenzyl)-9-hydroxy-7-(thiazol-2-yl)-3,4-dihydro-2H-pyrido[1,2-a]pyrazine-1,8-dione]	10 to 100 nM
O=C1c2c(O)c(=O)c(-c3nccs3)cn2CCN1Cc1ccc(F)cc1 [Example 309, 2-(4-fluorobenzyl)-9-hydroxy-7-(thiazol-2-yl)-3,4-dihydro-2H-pyrido[1,2-a]pyrazine-1,8-dione]	10 to 100 nM
O=C1c2c(O)c(=O)c(-c3nccs3)cn2CCN1Cc1ccccc1Cl [Example 310, 2-(2-chlorobenzyl)-9-hydroxy-7-(thiazol-2-yl)-3,4-dihydro-2H-pyrido[1,2-a]pyrazine-1,8-dione]	100 to 1000 nM
O=C1c2c(O)c(=O)c(-c3nccs3)cn2CCN1Cc1ccc2ccccc2c1 [Example 311, 9-hydroxy-2-(naphthalen-2-ylmethyl)-7-(thiazol-2-yl)-3,4-dihydro-2H-pyrido[1,2-a]pyrazine-1,8-dione]	< 10 nM
O=C1c2c(O)c(=O)c(-c3nccs3)cn2CCN1CCCc1cccc(Cl)c1F [Example 312, 2-[3-(3-chloro-2-fluorophenyl)propyl]-9-hydroxy-7-(thiazol-2-yl)-3,4-dihydro-2H-pyrido[1,2-a]pyrazine-1,8-dione]	10 to 100 nM
O=C1c2c(O)c(=O)c(-c3nccs3)cn2CCN1CCCc1ccc(Cl)c(F)c1 [Example 313, 2-[3-(4-chloro-3-fluorophenyl)propyl]-9-hydroxy-7-(thiazol-2-yl)-3,4-dihydro-2H-pyrido[1,2-a]pyrazine-1,8-dione]	10 to 100 nM
O=C1c2c(O)c(=O)c(-c3nccs3)cn2CCN1CCCc1ccc(F)cc1 [Example 314, 2-[3-(4-fluorophenyl)propyl]-9-hydroxy-7-(thiazol-2-yl)-3,4-dihydro-2H-pyrido[1,2-a]pyrazine-1,8-dione]	10 to 100 nM
O=C1c2c(O)c(=O)c(-c3nccs3)cn2CCN1CCCc1cccc(F)c1 [Example 315, 2-[3-(3-fluorophenyl)propyl]-9-hydroxy-7-(thiazol-2-yl)-3,4-dihydro-2H-pyrido[1,2-a]pyrazine-1,8-dione]	10 to 100 nM
O=C1c2c(O)c(=O)c(-c3nccs3)cn2CCN1CCCc1ccccc1 [Example 316, 9-hydroxy-2-(3-phenylpropyl)-7-(thiazol-2-yl)-3,4-dihydro-2H-pyrido[1,2-a]pyrazine-1,8-dione hydrochloride]	10 to 100 nM
O=C1c2c(O)c(=O)c(-c3ccccn3)cn2CCN1Cc1cccc(Cl)c1F [Example 317, 2-(3-chloro-2-fluorobenzyl)-9-hydroxy-7-(pyridin-2-yl)-3,4-dihydro-2H-pyrido[1,2-a]pyrazine-1,8-dione hydrochloride]	10 to 100 nM
